Source: patent US4672059A, “N-[[5-(trifluoromethyl)-6-methoxy-1-naphthalenyl]-thioxomethyl and carbonyl]-N-methylglycinamides” (American Home Products Corporation, priority 1985, dated 1987)

Assays:
[1] = tested on: dulcitol accumulation in tissues of galactose-fed rats (aldose reductase inhibiting property); assay: dulcitol accumulation in lens, sciatic nerve and diaphragm of galactosemic rats; assay type: in vivo, male Sprague-Dawley rats
Text: Such experiments are exemplified hereinbelow after the listing of the following general comments pertaining to these experiments:
(a) Four or more groups of six male rats, 50-70 g, Sprague-Dawley strain, were used. The first group, the control group, was fed a mixture of laboratory chow (roden Laboratory Chow, Purina) and glucose at 20% (w/w %) concentration. The untreated galactosemic group was fed a similar diet in which galactose is substituted for glucose. The third group was fed a diet prepared by mixing a given amount of the test compound with the galactose containing diet. The concentration of galactose in the diet of the treated groups was the same as that for the untreated galactosemic group.
(b) After four days, the animals were killed by decapitation. The eyeballs were removed and punctured with a razor blade; the freed lenses were rolled gently on filter paper and weighed. The sciatic nerves were dissected as completely as possible and weighed. Both tissues when frozen can be kept up to two weeks before being analyzed for dulcitol.
Only two minor reagent changes were made: (a) The rinsing mixture was an aqueous 5% (w/v) trichloroacetic acid solution and (b) the stock solution was prepared by dissolving 25 mg of dulcitol in 100 ml of an aqueous trichloroacetic acid solution. [N.B.: For each experiment the average value found in the tissue from rats fed the glucose diet was subtracted from the individual values found in the corresponding tissue in galactose-fed rats to obtain the amount of polyol accumulated.] […] In the present case the procedure of Hayman and Kinoshita was modified in that the final chromatography step was omitted in the preparation of the enzyme from bovine lens.
The figures under L, N and D represent the percentage decrease of dulcitol accumulation in the tissues of the lens, sciatic nerve and diaphragm, respectively, for treated rats as compared to untreated rats.

aldose reductase = details: literature; cited from earlier work
[2] = 26 mg/kg/day in diet, 4 days, vs untreated galactosemic rats

With `COC(=N)NC(=O)CN(C)C(=S)c1cccc2c(C(F)(F)F)c(OC)ccc12` [compound 4, N--[[[[5-(trifluoromethyl)-6-methoxy-1-naphthalenyl]thioxomethyl]-N--methylamino]acetyl]carbamimidic acid, methyl ester] the “% lowering dulcitol accumulation in vivo, N (sciatic nerve)” value [1, 2] was 62%.

For `COc1ccc2c(C(=O)N(C)CC(N)=O)cccc2c1C(F)(F)F` [compound 8, N-[[6-Methoxy-5-(trifluoromethyl)-1-naphthalenyl]carbonyl]-N-methylglycinamide], the “% lowering dulcitol accumulation in vivo, D (diaphragm)” value ([1]; diaphragm, 28 mg/kg/day in diet, 4 days, vs untreated galactosemic rats) was 42% and the “% lowering dulcitol accumulation in vivo, N (sciatic nerve)” value ([1]; 28 mg/kg/day in diet, 4 days, vs untreated galactosemic rats) was 66%.

In the case of `O=C(O)CN1C(=O)c2cccc3cccc(c23)C1=O` [1,3-Dioxo-1H-benz[de]isoquinoline-2(3H)-acetic acid], the “aldose reductase inhibition, in words” value (aldose reductase) is given as “effective inhibitor of aldose reductase”.

In the case of `COC(=O)NC(=O)CN(C)C(=S)c1cccc2c(C(F)(F)F)c(OC)ccc12` [compound 6, [[[5-(Trifluoromethyl)-6-methoxy-1-naphthalenyl]thioxomethyl](methylamino)acetyl]carbamic acid, Methyl Ester], the “% lowering dulcitol accumulation in vivo, N (sciatic nerve)” value ([1]; 8.4 mg/kg/day in diet, 4 days, vs untreated galactosemic rats) is reported as 33% and the “% lowering dulcitol accumulation in vivo, N (sciatic nerve)” value [1, 2] is reported as 93%.

In the case of `O=C1NC(=O)[C@@]2(CCOc3ccc(F)cc32)N1` [sorbinil, (S)-6-Fluoro-2,3-dihydrospiro(4H-1-benzopyran-4,4'-imidazolidine)-2',5'-dione], the “aldose reductase inhibition, in words” value (aldose reductase) is listed as “aldose reductase inhibiting properties”.

For `COc1ccc2c(C(=S)N(C)CC(=O)N(C)C)cccc2c1C(F)(F)F` [compound 3, 2-[[[6-Methoxy-5-(trifluoromethyl)-1-naphthalenyl]thioxomethyl]methylamino]-N,N-dimethylacetamide], the “% lowering dulcitol accumulation in vivo, N (sciatic nerve)” value ([1]; 55 mg/kg/day in diet, 4 days, vs untreated galactosemic rats) was 48%.

With `COc1ccc2c(C(=S)N(C)CC(N)=O)cccc2c1C(F)(F)F` [compound 1, N-[[5-(trifluoromethyl)-6-methoxy-1-naphthalenyl]-thioxomethyl]-N-methylglycinamide] the “in vivo results compared with compound No. 9 (tolrestat)” value ([1]; 5 mg/kg/day) was “comparable results” and the “% lowering dulcitol accumulation in vivo, N (sciatic nerve)” value ([1]; 5 mg/kg/day in diet, 4 days, vs untreated galactosemic rats) was 54%.
